Here are results for one compound from patent US20120270848A1, “Novel Compositions and Therapeutic Methods Using Same” (Galleon Pharmaceuticals, Inc., priority 2010, published 2012).

SMILES strings stand for the structures. “Also recorded” adds a separate entry of the source. Where only a bound is given, the exact number is not on record here.

Data set [1] deals with spontaneously breathing rats. The data set can be described thus: In vivo spirometry: cumulative dose-dependent ventilatory response (maximum peak minute ventilation). Also on record: species or system rat. Here is the method: (§1) All surgical procedures were performed under anesthesia induced by 2% isoflurane in compressed medical grade air. With rats in supine position, the right femoral vein was catheterized using polyethylene tubing (PE-50). This catheter was used for fluid and drug administration. Simultaneously, the right femoral artery was also catheterized for monitoring blood pressure. In order to measure the respiratory parameters in spontaneously breathing rats, trachea was intubated using 13 gauge tracheal tube (2.5 mm ID, Instech Solomon, Pa.).
After establishing a stable base-line at 1.5% isoflurane, cumulative dose-dependent (1, 3, 10 and 30 mg/kg) ventilatory responses to (−)-doxapram, (+)-doxapram, or racemic doxapram were generated from spontaneously breathing rats. Maximum peak minute ventilatory (MV) values at each dose from corresponding drug were calculated and used for generating ED50 values. Results are illustrated in Table 3 and FIG. 1. All the specific ventilatory stimulant activity of racemic doxapram was associated with the (+)-enantiomer.

For data set [2], the system named is opioid-induced respiratory depression in the rat. Put plainly: Opioid-induced respiratory depression, plethysmography (minute ventilation). In kind it is in vivo. The note with it: 1, 3 mg/kg/min IV infusion after 10 mg/kg IV morphine; compared to vehicle. Here is the method:
All animal experiments were carried out according to the US law on animals care and use approved by Galleon Pharmaceuticals Institutional Animal Care and Use Committee (IACUC). Rats with pre-cannulated jugular vein (for administrating drugs) were acclimated to plethysmography chambers for a minimum of 60 minutes, or until animals were no longer restless. Each animal was dosed with morphine sulfate (10 mg/kg), dissolved in sterile water at a concentration of 10 mg/mL (supplied by Baxter Healthcare Corporation), via injection into the jugular vein catheter over a period of 5-10 seconds. After a period of 5 min, (−)-doxapram, (+)-doxapram, or racemic doxapram ([…]) was administered via infusion into the jugular vein at a rate of 0.020 mL/min for a 300 gram rat. Behavioral observations were made though the course of the experiment. After 20 min of infusion at 1 mg/kg/min, the infusion rates were tripled from 0.020 mL/min to 0.060 mL/min for all rats, based on body weight. After 20 minutes of infusion at this dose, the infusion pumps were turned off, and all animals were given a 20 minute recovery period, followed by a post-study analysis of rat health and behavior. […] The small increase in minute ventilation seen towards the end of the experiment in the (−)-doxapram group was associated with behavioral toxicities and therefore cannot be distinguished from non-specific side effects. […]

For data set [3] the test system is unchanged. The data set can be described thus: Opioid-induced changes in arterial blood gas parameters, arterial blood gas analysis. It counts as in vivo. Here is the method: Rats with pre-cannulated jugular vein and femoral arterial catheters (for administrating drugs and obtaining blood samples respectively) were obtained from Harlan laboratories and kept at the animal facility at Galleon Pharmaceuticals until the experimental procedures. All animals experiments were carried out according to the US law on animals care and use approved by Galleon Pharmaceuticals IACUC. Each animal was dosed with morphine sulfate (10 mg/kg), dissolved in saline at a concentration of 10 mg/ml, via injection into the jugular vein over a period of 20 seconds with a 20 second flush of 0.9% NaCl saline. Prior to morphine administration, two 250 μL samples of arterial blood were aspirated from the femoral artery into a pre-heparinized syringe. The samples were analyzed on Radiometer's ABL Flex 800, where pO2, pCO2, pH, saO2 and other parameters were recorded. Aspirated volumes of arterial blood were replaced by room temperature sterile saline (˜300 μL) slowly flushed back into the femoral arterial catheter of the rodent to prevent anemia and/or dehydration. Morphine was then administered and 2 minutes later another blood sample was taken. After a period of 5 min from the administration of morphine, (−)-doxapram, (+)-doxapram or racemic doxapram (15 mg/mL) was administered via infusion into the jugular vein at a rate of 60 μL/min/300 gram rat. The infusion started at t=15 minutes and ended at t=35 minutes. Arterial blood gas analysis occurred at time points t=17, 25, 30, 37, 45, and 50 minutes. […] The small improvements in blood gas parameters seen towards the end of the experiment in the (−)-doxapram group were associated with behavioral toxicities and therefore cannot be distinguished from non-specific side effects. Results are illustrated in Table 4 and FIGS. 3-4.

Data set [4] has as its system hypoxic ventilatory response in the rat. Put plainly: Hypoxic ventilatory response to 12% O2, plethysmography. It counts as in vivo. The following applies: IV infusion (Table 5: 1, 3 mg/kg/min; text: 3 mg/kg/min), compared to vehicle. Here is the method:
Rats with a pre-cannulated jugular vein (for administrating drugs) were acclimated to plethysmography chambers for a minimum of 60 minutes, or until animals were no longer restless. Each animal was dosed with (−)-doxapram, (+)-doxapram, or racemic doxapram via infusion into the jugular vein catheter over a period of 15 minutes, at 3 mg/kg/min at 0.020 ml/min based on a 300 gram rat. After a period of 15 minutes, an isocapnic, hypoxic mixture (12% O2 balanced N2) was administered into all chambers using a gas mixer (CWE inc. GSM-3 gas mixer) for 15 minutes. After 15 minutes, the gas mixer was turned off, resulting in normal room air pumped into the chambers. Ten minutes later, the infusion pumps were turned off, and all animals were given a 15 minute recovery period, followed by a post-study analysis of rat health and behavior. […] The small increases in minute ventilation seen towards the end of the experiment in the (−)-doxapram group (i.e. T20-T55) were associated with behavioral toxicities and therefore cannot be distinguished from non-specific side effects. Results are illustrated in FIG. 5 and Table 5.

In another data set the test system is rat. The data set can be described thus: Cardio-respiratory traces after IV bolus (respiratory flow, volumes, minute ventilation, blood pressure). It counts as in vivo. Here is the method:
as §1
The procedure outlined in Example 1 was used herein. […] Results are illustrated in FIG. 6.
The procedure described in Example 1 was used herein to evaluate the effect of (−)-doxapram on mean arterial blood pressure (MAP) in the rat. […] Results are illustrated in FIG. 8.

The subject of another data set is rats. Put plainly: Observations of animal behavior and adverse effects. In kind it is in vivo, rat. An excerpt: In Examples 1-7 described above, all rats are observed for behavioral changes and adverse effects, as recognized by those skilled in the art. Such effects include central nervous system and motor effects such as impairment, sedation, and convulsive potential, and mortality. Other effects related to bodily functions are also observable and may include changes in breathing, urination, defecation, posture, and normal cage activities (i.e., grooming, exploring, eating, etc.). […]

The nature of data set [5]: Comparative IV pharmacokinetics of a 20 min infusion. It counts as in vivo. The note with it: 20 min infusion of 3 mg/kg/min IV. As for the experimental part:
FIG. 9 is a set of graphs illustrating the IV pharmacokinetics of a 20-minute infusion (from 15 minutes to 35 minutes) of 3 mg/kg/min IV (+)-doxapram and (−)-doxapram. The upper panel pharmacokinetic data was plotted on a linear y-axis, the lower panel represents the same data plotted on a log y-axis.
The difference in efficacy and adverse events seen between the enantiomers is therefore due to genuine differences in the intrinsic pharmacodynamics (i.e. pharmacology and side effects profiles) of the enantiomers, as opposed to differential exposures/pharmacokinetics. Results are illustrated in FIG. 9.

The mark [6] stands for this setting: 3.0 mpk/min IV infusion after morphine 10 mg/kg, vs composite vehicle group, 15 min into 20 min infusion.

For `CCN1CC(CCN2CCOCC2)C(c2ccccc2)(c2ccccc2)C1=O` (single isomer, unassigned; (-)) [(−)-doxapram], the “ED50 (mg/kg IV), increase in minute ventilation (MV)” value in data set [1] (IV bolus, cumulative doses 1, 3, 10 and 30 mg/kg, 1.5% isoflurane, maximum peak MV values) is over 200 mg/kg. Also, in data set [1] (ventilatory stimulant activity, rat IV), the “potency vs (+)-enantiomer (times less potent)” value is “at least 100 times”. Also, in data set [2], the “Plethysmography - OIRD (MV): reversal of opioid-induced respiratory depression” value is “does not; also recorded: Not active”. The “Arterial Blood Gases - OIRD, pCO2 (mmHg) and saO2 (%): reversal of opioid-induced respiratory depression” value in data set [3] (3 mg/kg/min IV infusion after 10 mg/kg IV morphine, compared to vehicle) is given as “does not; also recorded: Not active”. Besides, in data set [3] (setting [6]), the “PaCO2: % reversal” value is on record as 24%, the “PaO2: % reversal” value is −2%, the pH % reversal is recorded as −8% and the “saO2: % reversal” value is −6%. In addition, in data set [4], the “Plethysmography (MV), Naïve and HVR: potentiation of hypoxic ventilatory response” value is recorded as “did not; also recorded: Not active”. For the same compound, in the data set on rat (30 mg/kg IV bolus), the “effect on arterial blood pressure and arrhythmias” value was “pronounced reduction in arterial blood pressure together with a period of associated arrhythmias; also recorded: pronounced drop in blood pressure in rat, including a period of heart arrhythmias”; the “effect on respiratory flow, inspiratory and expiratory volume, minute ventilation” value was “only a minimal effect on respiratory flow, inspiratory and expiratory volume, and minute ventilation; also recorded: minimal ventilatory response”. Moreover, the “Cardiopulmonary response: arrhythmias” value with rat (E-Phys, ≧10 mg/kg IV bolus) was “Arrhythmias”. Further, the “Cardiopulmonary response: mean arterial pressure (MAP)” value with rat (E-Phys, ≧10 mg/kg IV bolus, 10 mg/kg) is given as “MAP ↓↓”. The “Clonic movements (animals out of group of 6)” value in the data set with rats (ABG post morphine, 3 mg/kg/min IV, 3 mg/kg) was 5/6. In the data set on rats (Pleth., 3 mg/kg/min IV, 3 mg/kg), the “Hunching, static, increased urination & defecation (animals out of group of 6)” value is recorded as 6/6. The “Death (animals out of group of 6)” value in the data set with rats (Pleth., 30 mg/kg IV bolus, 30 mg/kg) is 5/6. Moreover, in the data set on rats (at the doses tested, IV), the “adverse effects across the studies” value is recorded as “consistently produced a variety of adverse effects”. The “plasma exposure (time course, maximum concentration, AUC, washout), enantiomer vs enantiomer” value in data set [5] is “directly comparable time course, maximum concentration and exposure (AUC)”.
